Test results from US10421769B2, “Anticancer property studies of chiral palladium N-heterocyclic carbene complexes and process for preparation thereof” (Indian Institute of Technology Bombay, priority 2017, dated 2019).
“Also recorded” adds a separate entry of the source. Like-named read-outs stand apart in the source and are kept apart here.

Assays:
MCF-7 cells = assay: Sulforhodamine B assay, proliferation of MCF-7 cells; type: cell-based, human; settings: for IC50: MCF-7 breast cancer cells, one cell cycle (48 h), SRB
Description: (§1) The present invention further provides a Sulforhodamine B assay method for investigating the anti-cancer efficacies of the compounds of the present Pd—NHC series on MCF-7, HeLa, A549, B16-F10 and EMT6/AR1 cancer cell lines and also for a comparative study on normal skin cell line L929 and normal epithelial breast cells MCF10A. The said Sulforhodamine B assay is conducted as per reported method (Skehan et al., J. Natl. Cancer Inst. 1990, 82, 1107).
(§2) Experiment: The anti-proliferative activity of the present palladium N-heterocyclic carbene complexes on two different cancer cell lines MCF-7 and HeLa is tested using Sulforhodamine B assay to reveal their anti-tumor properties. The evaluation of growth inhibition of these complexes is done from their IC50 values for the inhibition of cell growth. The IC50 values are compared with Cisplatin to determine any increase in efficacy.
Method: The effects of present series of palladium N-heterocyclic carbene complexes, such as compounds (1S,2S,5R)-(1-3)b and (1R,2R,5S)-(1-3)b; (1S,2S,5R)-(1, 3)c and (1R,2R,5S)-(1, 3)c on the proliferation of MCF-7 cells after one cell cycle are determined by Sulforhodamine B assay. In particular, 1×10^5 cells/mL are seeded in each well in 96-well plates for 24 h and then incubated without or with different concentrations of these complexes at 37° C. for one cell cycle (48 h). After incubation of cells with the complexes for one cell cycle, cell growth is stopped by the addition of 50% trichloroacetic acid and stained with 0.4% sulforhodamine B dissolved in 1% acetic acid. Unbound dye is removed by washing with 1% acetic acid, and the protein content is determined by measuring absorbance at 520 nm in a Bio-Rad model 680 microplate reader after extracting with 10 mM tris base. IC50 value is calculated as the concentration of the complex that inhibited the proliferation of cells by 50% relative to the untreated control cells. The anticancer activities of the present Pd—NHC compounds are graphically represented in accompanying FIG. 1.
(§3) The data obtained is graphically represented in accompanying FIG. 2.

γ-H2AX in MCF-7 cells = assay: Immunofluorescence microscopy for DNA damage (γ-H2AX); type: cell-based, human; settings: MCF-7, 4 and 8 μM, 36 h; cisplatin 4 μM as comparison
Description: Experiment: MCF-7 (5×10^4 cells/well) cells were seeded on glass cover slip in a 24 well cell culture plate. After the cell were attached, they were incubated with 4 and 8 μM (1R,2R,5S)-1c and 4 μM cisplatin for 36 h, fixed with 3.7% formaldehyde and processed for immunostaining. After fixing, cells were blocked with 2% BSA and incubated with anti-γ H2AX IgG (1:200) for 2 h at 37° C. followed by Alexa flour 555 goat anti-rabbit secondary IgG (1:400) for 1 h at 37° C. Hoechst 33258 was used to stain the DNA. Immunofluorescence imaging was performed using iPlan-apochromat 40×/1.3 NA oil immersion objective in Confocal Laser Scanning microscope. Image J software was used to calculate the fluorescence intensity. 500 cells were scored in each case.

L929 cells = assay: Sulforhodamine B assay, normal skin cells L929 (selectivity); type: cell-based; settings: L929 IC50 against B16-F10 IC50
Description: as §1

[1] = tested on: intracellular ROS in MCF-7 cells; assay: Reactive oxygen species (ROS) assay using H2DCFDA, flow cytometry; type: cell-based, human; settings: 24 h
Description: Experiment: Reactive oxygen species (ROS) production in cells when treated with (1R,2R,5S)-1c, was estimated by ROS assay using 2′,7′-dichlorodihydrofluorescein diacetate (H2DCFDA). MCF-7 cells (5 mL) were seeded in 60 mm cell culture dishes at a density of 1.5×10^5 cells/mL. After cell attachment, they were incubated with 4 and 8 μM (1R,2R,5S)-1c for 24 h. Cells treated with 30 μM hydrogen peroxide was used as a positive control. Following 24 h of incubation, the cells were processed and analyzed using flow cytometry. The percentage of DCFH-DA positive MCF-7 cells in the absence and presence 4 and 8 μM (1R,2R,5S)-1c was determined by flow cytometry. 30 μM H2O2 was used as a positive control. Data are average of three independent set of experiments and ±indicates S.D.

EMT6/AR1 cells = assay: Sulforhodamine B assay, multidrug resistant EMT6/AR1 cells; type: cell-based, mouse; settings: EMT6/AR1 multidrug resistant mammary cancer cells, SRB
Description: as §1

MCF10A cells = assay: Sulforhodamine B assay, normal epithelial breast cells MCF10A (selectivity); type: cell-based; settings: MCF10A IC50 against MCF-7 IC50
Description: as §1

HeLa cells = assay: Sulforhodamine B assay, proliferation of HeLa cells; type: cell-based, human; settings: for IC50: HeLa cervical cancer cells, 24 h, SRB
Description: as §1, §2
The seeded cells in 96-well plates are incubated with the complex for 24 h and the assay is performed.
as §3

p21 in MCF-7 cells = assay: Immunostaining for nuclear accumulation of p21; type: cell-based, human; settings: MCF-7, 4 and 8 μM, 36 h
Description: Experiment: MCF-7 (5×10^4 cells/well) cells were seeded on glass cover slip in a 24-well cell culture plate. After the cells were attached, they were incubated with 4 and 8 μM (1R,2R,5S)-1c for 36 h, fixed with 3.7% formaldehyde and processed for immunostaining. After fixing, cells were blocked with 2% BSA and incubated with anti-p53 IgG (1:300) and anti-p21 IgG (1:300) for 2 h at 37° C. Primary antibody incubation was followed by Alexa Fluor 568-conjugated sheep anti-mouse secondary IgG (1:400) incubation for 1 h at 37° C. Hoechst 33258 was used to stain the DNA. Immunofluorescence images were captured using Eclipse TE 2000U microscope (Nikon, Tokyo, Japan) at 40× magnification and processed by Image-Pro Plus software (Media Cybernetics, Silver Spring, Md.). To determine the percentage of cells with nuclear accumulation of p53 and p21, 1000 cells were scored in each case. The experiment was repeated thrice.

B16-F10 cells = assay: Sulforhodamine B assay, B16-F10 skin cancer cells; type: cell-based, mouse; settings: SRB
Description: as §1

Substance: trans-[1-(1R)-menthyl-4-(ethyl)-1,2,4-triazol-5-ylidene]2Pd(OCOCF3)2 [(1R,2R,5S)-1c]
- IC50 of Cisplatin against MCF-7 as multiple of IC50 of the complex (MCF-7 cells; MCF-7): 27 times
- IC50 (MCF-7 cells; read-out: IC50 (μM), MCF-7): 0.55 ± 0.02 µM
- IC50 (MCF-7 cells; unit nM printed in cell or sentence, read-out: IC50, MCF-7 (values given in nM)): 0.55 ± 0.02 µM
- DNA damage, γ-H2AX immunostaining (in words) (γ-H2AX in MCF-7 cells): stronger DNA damaging effect on MCF-7 cells than cisplatin; also recorded: more DNA damage than compared to Cisplatin; also recorded: causes DNA damage in MCF-7 cells
- times more selective towards the cancer cells (B16-F10 vs L929) (L929 cells): around 8.1 times
- % of DCFH-DA positive cells ([1]; MCF-7, 4 μM): 49 ± 11%
- % of DCFH-DA positive cells ([1]; MCF-7, 8 μM): 74 ± 1%
- Intracellular ROS generation (in words) ([1]; MCF-7, 4 and 8 μM): leads ROS production in cells; also recorded: ROS is generated in MCF-7 cells
- IC50 (EMT6/AR1 cells): 4.8 ± 0.3 µM
- times more selective towards the cancer cells (MCF-7 vs MCF10A) (MCF10A cells): around 16 times
- IC50 of Cisplatin against HeLa as multiple of IC50 of the complex (HeLa cells; HeLa): around 4 times
- IC50 (HeLa cells; listed as drawing 41): 2.3 ± 1 µM
- IC50 (HeLa cells; listed as drawing 48): 2.3 ± 1 µM
- Nuclear accumulation of p21 (in words) (p21 in MCF-7 cells): nuclear accumulation of p21; also recorded: transcriptionally activates p21
- IC50 (B16-F10 cells): 1.3 ± 0.4 µM
